{
  "source": "ChEMBL document CHEMBL5325512",
  "about": "“Sub-stoichiometric Modulation of Viral Targets-Potent Antiviral Agents That Exploit Target Vulnerability” (ACS Med Chem Lett, 2023)",
  "key": {"[1]": {"system": "Human immunodeficiency virus 1", "assay": "Antiviral activity against wild type HIV 1 NL4-3", "assay_type": "functional, organism-based", "conditions": "Human immunodeficiency virus 1, NL4-3"}, "[2]": {"system": "Human immunodeficiency virus 1", "assay": "Antiviral activity against wild type HIV 1 in presence of human serum albumin", "assay_type": "functional, organism-based"}, "[3]": {"system": "Human immunodeficiency virus 1", "assay": "Antiviral activity against HIV 1 harbouring V370A mutant", "assay_type": "functional, organism-based"}, "[4]": {"system": "Human immunodeficiency virus 1", "assay": "Antiviral activity against HIV 1 harbouring deltaV370 mutant", "assay_type": "functional, organism-based"}, "[5]": {"system": "Human immunodeficiency virus 1", "assay": "Antiviral activity against HIV 1 harbouring V362I/V370 mutant", "assay_type": "functional, organism-based"}, "[6]": {"system": "Human immunodeficiency virus 1", "assay": "Antiviral activity against HIV1 harbouring T332S/V362I/prR41G mutant", "assay_type": "functional, organism-based"}, "[7]": {"biological_target": "Human immunodeficiency virus type 1 Gag protein (Human immunodeficiency virus 1) (UniProt Q77YG1)", "assay": "Binding affinity to HIV1 wild type Gag assessed as dissociation half life"}, "[8]": {"system": "Human immunodeficiency virus 1", "assay": "Binding affinity to HIV1 Gag V370A/deltaT371 mutant assessed as dissociation half life"}, "[9]": {"system": "Human immunodeficiency virus 1", "assay": "Binding affinity to HIV1 Gag deltaV370A mutant assessed as dissociation half life"}, "[10]": {"system": "Human immunodeficiency virus 1", "assay": "Binding affinity to HIV1 Gag V362I/V370A mutant assessed as dissociation half life"}, "[11]": {"system": "Gag-Pol polyprotein (Human immunodeficiency virus type 1 group M subtype B (isolate HXB2)(HIV-1)), P04585 [A364V]", "assay": "Binding affinity to HIV1 Gag A364V mutant assessed as dissociation half life", "conditions": "Human immunodeficiency virus 1"}, "[12]": {"system": "Human immunodeficiency virus 1", "assay": "Antiviral activity against wild type HIV 1", "assay_type": "functional, organism-based"}, "[13]": {"system": "Human immunodeficiency virus 1", "assay": "Antiviral activity against HIV 1 harbouring A362T/V362I/V370 mutant", "assay_type": "functional, organism-based"}, "[14]": {"system": "Human immunodeficiency virus 1", "assay": "Antiviral activity against HIV 1 harbouring R361K/V362I/L363M mutant", "assay_type": "functional, organism-based"}, "[15]": {"system": "Human immunodeficiency virus 1", "assay": "Antiviral activity against HIV 1 harbouring A364V mutant", "assay_type": "functional, organism-based"}, "[16]": {"assay": "Selectivity ratio of EC50 for antiviral activity against HIV1 harbouring V362I/V370A mutant to EC50 for antiviral activity against wild type HIV1", "assay_type": "functional, Human immunodeficiency virus 1"}, "[17]": {"assay": "Selectivity ratio of EC50 for antiviral activity against HIV1 harbouring V370A mutant to EC50 for antiviral activity against wild type HIV1", "assay_type": "functional, Human immunodeficiency virus 1"}, "[18]": {"assay": "Selectivity ratio of EC50 for antiviral activity against HIV1 harbouring deltaV370A mutant to EC50 for antiviral activity against wild type HIV1", "assay_type": "functional, Human immunodeficiency virus 1"}, "[19]": {"assay": "Selectivity ratio of EC50 for antiviral activity against HIV1 harbouring T332S/V362I/prR41G mutant to EC50 for antiviral activity wild type HIV1", "assay_type": "functional, Human immunodeficiency virus 1"}, "[20]": {"assay": "Selectivity ratio of EC50 for antiviral activity against HIV1 harbouring A362T/V362I/V370A mutant to EC50 for antiviral activity wild type HIV1", "assay_type": "functional, Human immunodeficiency virus 1"}, "[21]": {"assay": "Selectivity ratio of EC50 for antiviral activity against HIV1 harbouring R361K/V362I/L363M mutant to EC50 for antiviral activity wild type HIV1", "assay_type": "functional, Human immunodeficiency virus 1"}, "[22]": {"assay": "Selectivity ratio of EC50 for antiviral activity against HIV1 harbouring A364V mutant to EC50 for antiviral activity wild type HIV1", "assay_type": "functional, Human immunodeficiency virus 1"}, "[23]": {"system": "Gag-Pol polyprotein (Human immunodeficiency virus type 1 group M subtype B (isolate HXB2)(HIV-1)), P04585 [V362I]", "assay": "Binding affinity to HIV1 Gag V362I mutant assessed as dissociation half life", "conditions": "Human immunodeficiency virus 1"}, "[24]": {"system": "Gag-Pol polyprotein (Human immunodeficiency virus type 1 group M subtype B (isolate HXB2)(HIV-1)), P04585 [V370A]", "assay": "Binding affinity to HIV1 Gag V370A mutant assessed as dissociation half life", "conditions": "Human immunodeficiency virus 1"}, "[25]": {"system": "Human immunodeficiency virus 1", "assay": "Antiviral activity against HIV1 infected in human assessed as reduction in Plasma viremia by measuring HIV1 RNA at 10 mg/kg after 10 days", "assay_type": "functional", "conditions": "time 10 day"}, "[26]": {"system": "Human immunodeficiency virus 1", "assay": "Antiviral activity against HIV1 infected in human assessed as reduction in Plasma viremia by measuring HIV1 RNA at 40 mg/kg after 7 days", "assay_type": "functional", "conditions": "time 7 day"}, "[27]": {"system": "Human immunodeficiency virus 1", "assay": "Antiviral activity against HIV1 infected in human assessed as reduction in Plasma viremia by measuring HIV1 RNA at 80 mg/kg after 7 days", "assay_type": "functional", "conditions": "time 7 day"}, "[28]": {"system": "Human immunodeficiency virus 1", "assay": "Antiviral activity against HIV1 infected in human assessed as reduction in Plasma viremia by measuring HIV1 RNA at 140 mg/kg after 7 days", "assay_type": "functional", "conditions": "time 7 day"}, "[29]": {"system": "Human immunodeficiency virus 1", "assay": "Antiviral activity against HIV1 infected in human assessed as reduction in Plasma viremia by measuring HIV1 RNA at 200 mg/kg after 10 days", "assay_type": "functional", "conditions": "time 10 day"}},
  "data": [
    {"smiles": "C=C(C)[C@@H]1CC[C@]2(NCCN3CCS(=O)(=O)CC3)CC[C@]3(C)[C@H](CC[C@@H]4[C@@]5(C)CC=C(C6=CCC(C(=O)O)CC6)C(C)(C)[C@@H]5CC[C@]43C)[C@@H]12", "note": "(stereo partly specified)", "values": [
      {"measurement": "EC50", "setting": "[1]", "result": 0.6, "unit": "nM"},
      {"measurement": "EC50", "setting": "[2]", "result": 9, "unit": "nM"},
      {"measurement": "EC50", "setting": "[3]", "result": 0.7, "unit": "nM"},
      {"measurement": "EC50", "setting": "[4]", "result": 2, "unit": "nM"}
    ]},
    {"smiles": "C=C(C)[C@@H]1CC[C@]2(NCCN3CCS(=O)(=O)CC3)CC[C@]3(C)[C@H](CC[C@@H]4[C@@]5(C)CC=C(C6=CC[C@@H](C(=O)O)CC6)C(C)(C)[C@@H]5CC[C@]43C)[C@@H]12", "values": [
      {"measurement": "EC50", "setting": "[1]", "result": 3, "unit": "nM"},
      {"measurement": "EC50", "setting": "[2]", "result": 5, "unit": "nM"},
      {"measurement": "EC50", "setting": "[5]", "result": 15, "unit": "nM"},
      {"measurement": "EC50", "setting": "[4]", "result": 3, "unit": "nM"},
      {"measurement": "EC50", "setting": "[6]", "result": 19, "unit": "nM"}
    ]},
    {"smiles": "C=C(C)[C@@H]1CC[C@]2(NCCN3CCS(=O)(=O)CC3)CC[C@]3(C)[C@H](CC[C@@H]4[C@@]5(C)CC=C(c6ccc(C(=O)O)cc6)C(C)(C)[C@@H]5CC[C@]43C)[C@@H]12", "note": "[BMS-955176]", "values": [
      {"measurement": "EC50", "setting": "[3]", "result": 6, "unit": "nM"},
      {"measurement": "EC50", "setting": "[5]", "result": "> 3000", "unit": "nM"},
      {"measurement": "EC50", "setting": "[4]", "result": 6, "unit": "nM"},
      {"measurement": "EC50", "setting": "[6]", "result": 704, "unit": "nM"},
      {"measurement": "T1/2", "setting": "[7]", "result": 0.85, "unit": "h"},
      {"measurement": "T1/2", "setting": "[8]", "result": 0.8, "unit": "h"},
      {"measurement": "T1/2", "setting": "[9]", "result": 0.767, "unit": "h"},
      {"measurement": "T1/2", "setting": "[10]", "result": 0.583, "unit": "h"},
      {"measurement": "T1/2", "setting": "[11]", "result": "< 1", "unit": "min"},
      {"measurement": "EC50", "setting": "[12]", "result": 5, "unit": "nM"},
      {"measurement": "EC50", "setting": "[13]", "result": "> 3000", "unit": "nM"},
      {"measurement": "EC50", "setting": "[14]", "result": 552, "unit": "nM"},
      {"measurement": "EC50", "setting": "[15]", "result": "> 3000", "unit": "nM"},
      {"measurement": "Ratio EC50", "setting": "[16]", "result": ">600"},
      {"measurement": "Ratio EC50", "setting": "[17]", "result": 1.2},
      {"measurement": "Ratio EC50", "setting": "[18]", "result": 1.2},
      {"measurement": "Ratio EC50", "setting": "[19]", "result": 141},
      {"measurement": "Ratio EC50", "setting": "[20]", "result": ">600"},
      {"measurement": "Ratio EC50", "setting": "[21]", "result": 110},
      {"measurement": "Ratio EC50", "setting": "[22]", "result": ">600"}
    ]},
    {"smiles": "C=C(C)[C@@H]1CC[C@]2(NCCN3CCS(=O)(=O)CC3)CC[C@]3(C)[C@H](CC[C@@H]4[C@@]5(C)CC=C(C6=CC[C@@](CF)(C(=O)O)CC6)C(C)(C)[C@@H]5CC[C@]43C)[C@@H]12", "note": "[FIPRAVIRIMAT]", "values": [
      {"measurement": "EC50", "setting": "[3]", "result": 2, "unit": "nM"},
      {"measurement": "EC50", "setting": "[5]", "result": 3, "unit": "nM"},
      {"measurement": "EC50", "setting": "[4]", "result": 3, "unit": "nM"},
      {"measurement": "EC50", "setting": "[6]", "result": 7, "unit": "nM"},
      {"measurement": "T1/2", "setting": "[7]", "result": 6.02, "unit": "h"},
      {"measurement": "T1/2", "setting": "[8]", "result": 7.65, "unit": "h"},
      {"measurement": "T1/2", "setting": "[9]", "result": 5.25, "unit": "h"},
      {"measurement": "T1/2", "setting": "[23]", "result": 4.48, "unit": "h"},
      {"measurement": "T1/2", "setting": "[24]", "result": 7.23, "unit": "h"},
      {"measurement": "T1/2", "setting": "[10]", "result": 3.78, "unit": "h"},
      {"measurement": "T1/2", "setting": "[11]", "result": "< 1", "unit": "min"},
      {"measurement": "EC50", "setting": "[12]", "result": 3, "unit": "nM"},
      {"measurement": "EC50", "setting": "[13]", "result": 26, "unit": "nM"},
      {"measurement": "EC50", "setting": "[14]", "result": 3, "unit": "nM"},
      {"measurement": "EC50", "setting": "[15]", "result": 274, "unit": "nM"},
      {"measurement": "Ratio EC50", "setting": "[16]", "result": 1},
      {"measurement": "Ratio EC50", "setting": "[17]", "result": 0.7},
      {"measurement": "Ratio EC50", "setting": "[18]", "result": 1},
      {"measurement": "Ratio EC50", "setting": "[19]", "result": 2.3},
      {"measurement": "Ratio EC50", "setting": "[20]", "result": 8.7},
      {"measurement": "Ratio EC50", "setting": "[21]", "result": 1},
      {"measurement": "Ratio EC50", "setting": "[22]", "result": 91},
      {"measurement": "Activity", "setting": "[25]", "result": -0.4},
      {"measurement": "Activity", "setting": "[26]", "result": -1.2},
      {"measurement": "Activity", "setting": "[27]", "result": -1},
      {"measurement": "Activity", "setting": "[28]", "result": -1.5},
      {"measurement": "Activity", "setting": "[29]", "result": -2}
    ]}
  ]
}
